Format in all cases: biochemical
Assay [1] addresses PKC alpha kinase (Homo sapiens, UniProt P17252). The experiment in a line: PKC alpha kinase inhibition, coupled-enzyme (NADH absorbance) assay, Ki. Particulars: 130 μM ATP, 4.5 nM PKC alpha kinase, 30° C. The method, then:
(§1) An assay buffer solution was prepared which consisted of 100 mM HEPES (pH 7.5), 10 mM MgCl2, 25 mM NaCl, 0.1 mM EDTA, 100 μM CaCl2 and 0.01% Brij. […] To 16 μL of this enzyme buffer, in a 384 well plate, was added 1 μL of VRT stock solution in DMSO. The mixture was allowed to equilibrate for 10 mins at 30° C. The enzyme reaction was initiated by the addition of 16 μL stock ATP solution prepared in assay buffer to a final assay concentration of 130 μM. Initial rate data was determined from the rate of change of absorbance at 340 nm (corresponding to stoichiometric consumption of NADH) using a Molecular Devices Spectramax plate reader (Sunnyvale, Calif.) over 15 mins at 30° C. […] Ki values were calculated from initial rate data by non-linear regression using the Prism software package (Prism 4.0a, Graphpad Software, San Diego, Calif.).

The target in assay [2] is PKC delta kinase (Homo sapiens, UniProt Q05655). The experiment in a line: PKC delta kinase inhibition, coupled-enzyme (NADH absorbance) assay, Ki. Particulars: 150 μM ATP, 46 nM PKC delta kinase, 30° C.; read-out: Ki PKC delta. Here is the method: as §1, with “EDTA” for “EDTA, 100 μM CaCl2”, “150” for “130”
Sequence of PKC delta kinase (Q05655 whole entry): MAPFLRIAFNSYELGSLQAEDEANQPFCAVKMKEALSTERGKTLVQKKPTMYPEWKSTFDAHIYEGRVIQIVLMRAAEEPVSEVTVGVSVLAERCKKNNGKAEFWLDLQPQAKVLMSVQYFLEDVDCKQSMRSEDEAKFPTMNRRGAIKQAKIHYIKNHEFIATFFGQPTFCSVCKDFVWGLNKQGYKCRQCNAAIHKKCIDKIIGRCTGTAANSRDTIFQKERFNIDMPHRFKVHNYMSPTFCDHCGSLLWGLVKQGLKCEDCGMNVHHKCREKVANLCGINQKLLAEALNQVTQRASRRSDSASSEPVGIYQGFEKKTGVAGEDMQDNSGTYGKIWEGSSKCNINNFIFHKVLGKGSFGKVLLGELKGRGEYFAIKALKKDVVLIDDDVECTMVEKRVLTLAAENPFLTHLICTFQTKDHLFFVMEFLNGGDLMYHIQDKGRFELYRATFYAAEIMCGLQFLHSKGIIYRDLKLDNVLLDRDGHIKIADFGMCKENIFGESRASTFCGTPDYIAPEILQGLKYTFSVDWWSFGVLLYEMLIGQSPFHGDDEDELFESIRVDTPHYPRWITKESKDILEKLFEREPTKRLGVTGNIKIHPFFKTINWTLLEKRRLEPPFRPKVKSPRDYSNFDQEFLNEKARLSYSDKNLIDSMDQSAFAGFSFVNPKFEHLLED
The target of assay [3] is PKC theta kinase (Homo sapiens, UniProt Q04759). The experiment in a line: PKC theta kinase inhibition, coupled-enzyme (NADH absorbance) assay, Ki. Particulars: 240 μM ATP, 18 nM PKC theta kinase, 30° C. The method, then: An assay buffer solution was prepared which consisted of 100 mM HEPES (pH 7.5), 10 mM MgCl2, 25 mM NaCl, 0.1 mM EDTA and 0.01% Brij. […] To 60 μL of this enzyme buffer, in a 384 well plate, was added 2 μL of VRT stock solution in DMSO. The mixture was allowed to equilibrate for 10 mins at 30° C. […] Ki values were calculated from initial rate data by non-linear regression using the Prism software package (Prism 4.0a, Graphpad Software, San Diego, Calif.).
Sequence of PKC theta kinase (Q04759 whole entry): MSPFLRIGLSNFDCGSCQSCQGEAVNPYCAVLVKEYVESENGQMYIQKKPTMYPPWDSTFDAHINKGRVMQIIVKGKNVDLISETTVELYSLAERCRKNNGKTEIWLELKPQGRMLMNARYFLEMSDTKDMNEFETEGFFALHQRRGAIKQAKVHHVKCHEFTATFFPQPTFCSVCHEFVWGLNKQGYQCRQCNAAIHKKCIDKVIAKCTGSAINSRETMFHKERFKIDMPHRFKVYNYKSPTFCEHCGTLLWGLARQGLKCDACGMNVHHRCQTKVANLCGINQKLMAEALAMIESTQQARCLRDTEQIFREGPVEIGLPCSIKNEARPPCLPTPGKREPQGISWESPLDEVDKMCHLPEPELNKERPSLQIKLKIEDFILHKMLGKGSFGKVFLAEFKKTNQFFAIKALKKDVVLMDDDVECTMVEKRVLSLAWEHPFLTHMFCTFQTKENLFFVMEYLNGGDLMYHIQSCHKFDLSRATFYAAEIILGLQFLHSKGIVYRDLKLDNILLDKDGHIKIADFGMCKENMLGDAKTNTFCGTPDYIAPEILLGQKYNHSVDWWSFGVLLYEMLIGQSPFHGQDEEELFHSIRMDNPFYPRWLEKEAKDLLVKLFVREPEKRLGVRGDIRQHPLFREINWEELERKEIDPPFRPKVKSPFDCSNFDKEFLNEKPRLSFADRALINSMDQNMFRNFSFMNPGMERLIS

Structures are written as SMILES. Bounds are passed on as bounds.

Regarding `Clc1cnc2[nH]nc(-c3cccc(N4CCNCC4)n3)c2c1` [Compound 42], the Ki in assay [1], in assay [2] and in assay [3] was less than 500 nM each time.
With `C[C@H]1CN(c2cccc(-c3n[nH]c4ncc(Cl)cc34)n2)CCN1` [Compound 43], the Ki in assay [1], in assay [2] and in assay [3] was less than 500 nM in each case.
With `CC(C)C[C@H]1CN(c2ccc(C(F)(F)F)c(-c3n[nH]c4ncc(F)cc34)n2)CCN1` [Compound 44], the Ki was less than 2800 nM in assay [1], less than 2800 nM in assay [2] and less than 50 nM in assay [3].
With `Fc1cnc2[nH]nc(-c3nc(N4CCNCC4)ccc3C(F)(F)F)c2c1` [Compound 45], the Ki in assay [1] is greater than 1250 nM; in assay [2], greater than 2000 nM; in assay [3], less than 500 nM.
Taken in the same sequence, the figures for `CC(C)C[C@@H]1CN(c2cccc(-c3n[nH]c4ncc(F)cc34)n2)CCN1` [Compound 46] were less than 2800 nM, less than 500 nM and less than 50 nM.
Take `CC(C)C[C@H]1CN(c2ccc(Cl)c(-c3n[nH]c4ncccc34)n2)CCN1` [Compound 47]: the figures for the Ki in assay [1], in assay [2] and in assay [3] were less than 2800 nM, less than 500 nM and less than 50 nM, respectively.
On the same counts, the results for `Clc1ccc(N2CCNCC2)nc1-c1n[nH]c2ncccc12` [Compound 48] are less than 2800 nM, less than 2800 nM and less than 500 nM.
On the same counts, the results for `CC(C)C[C@H]1CN(c2ccc(-c3ccccc3)c(-c3n[nH]c4ncccc34)n2)CCN1` [Compound 49] are greater than 1250 nM, less than 2800 nM and less than 500 nM.
Taken in the same sequence, the figures for `c1ccc(-c2ccc(N3CCNCC3)nc2-c2n[nH]c3ncccc23)cc1` [Compound 50] were greater than 1250 nM, greater than 2000 nM and greater than 700 nM.
Turning to `C=Cc1ccc(N2CCN[C@@H](CC(C)C)C2)nc1-c1n[nH]c2ncccc12` [Compound 51], the Ki was greater than 1250 nM in assay [1], greater than 2000 nM in assay [2] and greater than 700 nM in assay [3].
Taken in the same sequence, the figures for `C=Cc1ccc(N2CCNCC2)nc1-c1n[nH]c2ncccc12` [Compound 52] were greater than 1250 nM, less than 2800 nM and less than 500 nM.
Taken in the same sequence, the figures for `CC(F)(F)CC1CN(c2cccc(-c3n[nH]c4ncccc34)n2)CCN1` (stereo not drawn) [Compound 54] were less than 2800 nM, less than 500 nM and less than 50 nM.
On the same counts, the results for `C=C(F)c1cc(-c2n[nH]c3ncccc23)nc(N2CCN[C@@H](CC(C)C)C2)c1` [Compound 55] are greater than 1250 nM, less than 2800 nM and less than 50 nM.
In the case of `Cc1cc(-c2n[nH]c3ncccc23)nc(N2CCN[C@@H](CC(C)C)C2)c1` [Compound 56], the Ki in assay [1] was greater than 1250 nM; in assay [2] it was less than 2800 nM; in assay [3], less than 500 nM.
On the same counts, the results for `CC(C)C[C@H]1CN(c2cc(C(F)(F)F)cc(-c3n[nH]c4ncccc34)n2)CCN1` [Compound 57] are greater than 1250 nM, greater than 2000 nM and less than 500 nM.
On the same counts, the results for `Cc1cc(N2CCN[C@@H](CC(C)C)C2)nc(-c2n[nH]c3ncccc23)c1Cl` [Compound 58] are greater than 1250 nM, less than 2800 nM and less than 500 nM.
Regarding `CCCC1CN(c2cccc(-c3n[nH]c4ncccc34)n2)CCN1` (stereo not drawn) [Compound 59], the values for the Ki in assay [1], in assay [2] and in assay [3] were less than 2800 nM, less than 500 nM and less than 50 nM, respectively.
Regarding `OC1(c2cccc(-c3n[nH]c4ncccc34)n2)CCNCC1` [Compound 60, 4-(6-(1H-pyrazolo[3,4-b]pyridin-3-yl)pyridin-2-yl)piperidin-4-ol], the Ki in assay [1] was greater than 1250 nM; in assay [2], less than 500 nM; in assay [3], greater than 700 nM.
Taken in the same sequence, the figures for `NC1CCN(c2cccc(-c3n[nH]c4ncccc34)n2)CC1` [Compound 61] were greater than 1250 nM, less than 2800 nM and less than 500 nM.
Taken in the same sequence, the figures for `NC1CN(c2cccc(-c3n[nH]c4ncccc34)n2)C1` [Compound 63] were greater than 1250 nM, greater than 2000 nM and less than 2800 nM.
Taken in the same sequence, the figures for `NCC1CCN(c2cccc(-c3n[nH]c4ncccc34)n2)CC1` [Compound 64] were greater than 1250 nM, less than 2800 nM and less than 500 nM.
With `FC(F)(F)c1ccc(N2CCNC(C(F)(F)F)C2)nc1-c1n[nH]c2ncccc12` (stereo not drawn) [Compound 65], the Ki in assay [1] was greater than 1250 nM; in assay [2], greater than 2000 nM; in assay [3], less than 500 nM.
Taken in the same sequence, the figures for `CC(C)C[C@H]1CN(c2ccnc(-c3n[nH]c4ncccc34)n2)CCN1` [Compound 66] were greater than 1250 nM, less than 2800 nM and less than 500 nM.
Taken in the same sequence, the figures for `NC1CCCN(c2cccc(-c3n[nH]c4ncccc34)n2)C1` (stereo not drawn) [Compound 68] were less than 2800 nM, less than 500 nM and less than 500 nM.
On the same counts, the results for `Cc1cc(C)c(CC2CN(c3cccc(-c4n[nH]c5ncccc45)n3)CCN2)c(C)c1` (stereo not drawn) [Compound 69] are greater than 1250 nM, greater than 2000 nM and greater than 700 nM.
With `CC(C)(F)CC1CN(c2cccc(-c3n[nH]c4ncccc34)n2)CCN1` (stereo not drawn) [Compound 71], the values for the Ki in assay [1], in assay [2] and in assay [3] were greater than 1250 nM, less than 500 nM and less than 50 nM, respectively.
Take `CC(C)(O)CC1CN(c2ccc(C(F)(F)F)c(-c3n[nH]c4ncccc34)n2)CCN1` (stereo not drawn) [Compound 72]: the Ki in assay [1] is greater than 1250 nM; in assay [2], greater than 2000 nM; in assay [3] it was less than 500 nM.
On the same counts, the results for `CC(C)C[C@@H]1CC(O)(c2cccc(-c3n[nH]c4ncccc34)n2)CCN1` (stereo partly drawn) [Compound 73] are greater than 1250 nM, greater than 2000 nM and greater than 700 nM.
On the same counts, the results for `NCC1CCCN(c2cccc(-c3n[nH]c4ncccc34)n2)C1` (stereo not drawn) [Compound 74] are less than 2800 nM, less than 500 nM and less than 500 nM.
On the same counts, the results for `CC[C@H]1CN(c2ccc(C(F)(F)F)c(-c3n[nH]c4ncccc34)n2)CCN1` [Compound 75] are greater than 1250 nM, less than 2800 nM and less than 500 nM.
In the case of `CC(C)(C)[C@H]1CN(c2cccc(-c3n[nH]c4ncccc34)n2)CCN1` [Compound 76], the Ki is less than 2800 nM in assay [1], less than 500 nM in assay [2] and less than 50 nM in assay [3].
On the same counts, the results for `CC(C)(C)[C@H]1CN(c2ccc(C(F)(F)F)c(-c3n[nH]c4ncccc34)n2)CCN1` [Compound 77] are greater than 1250 nM, greater than 2000 nM and less than 500 nM.
Taken in the same sequence, the figures for `CC(C)(C)[C@H]1CN(c2ccc(Cl)c(-c3n[nH]c4ncccc34)n2)CCN1` [Compound 78] were greater than 1250 nM, less than 2800 nM and less than 500 nM.
In the case of `CC1(C)CN(c2cccc(-c3n[nH]c4ncccc34)n2)CCN1` [Compound 79], the results for the Ki in assay [1], in assay [2] and in assay [3] were greater than 1250 nM, less than 500 nM and less than 50 nM, respectively.
On to `CC1(C)CN(c2ccc(C(F)(F)F)c(-c3n[nH]c4ncccc34)n2)CCN1` [Compound 80], for which the figures for the Ki in assay [1], in assay [2] and in assay [3] were greater than 1250 nM, less than 500 nM and less than 500 nM, respectively.
On to `c1cnc2[nH]nc(-c3nccc(N4CCNCC4)n3)c2c1` [Compound 81, 3-(4-(piperazin-1-yl)pyrimidin-2-yl)-1H-pyrazolo[3,4-b]pyridine], for which the Ki in assay [1] was greater than 1250 nM; in assay [2], greater than 2000 nM; in assay [3], greater than 700 nM.
On the same counts, the results for `CC(C)CC1(C)CN(c2ccc(C(F)(F)F)c(-c3n[nH]c4ncccc34)n2)CCN1` (stereo not drawn) [Compound 82] are less than 500 nM, less than 500 nM and less than 50 nM.
Taken in the same sequence, the figures for `FC1(c2cccc(-c3n[nH]c4ncccc34)n2)CCNCC1` [Compound 83] were less than 2800 nM, less than 500 nM and less than 50 nM.
Taken in the same sequence, the figures for `CC(C)C[C@H]1CN(c2ccc(C(F)(F)F)c(-c3n[nH]c4ncccc34)n2)CC[C@H]1N` [Compound 84] were less than 2800 nM, less than 500 nM and less than 50 nM.

The values above are taken from patent US9193722B2, “Tri-cyclic pyrazolopyridine kinase inhibitors” (Vertex Pharmaceuticals Incorporated, priority 2008, dated 2015).
